{"source": "patent US5585355A", "about": "“Method for increasing blood-ocular barrier permeability with permeabilizer peptides” (Alkermes, Inc., priority 1994, dated 1996)", "key": {"blood-ocular barrier": {"tested_on": "blood-ocular barrier", "conditions": "for Uptake of [14C]-sucrose, % of plasma concentration (W/W) / KIN, unidirectional transport rate of [14C]-sucrose: A-7 1 μg/kg; for KIN, unidirectional transport rate of [14C]-sucrose: 3.0 min to 4.5 min", "method": "Adult Hartley guinea pigs of either sex (250-300 g) were used.\nAnimals were anaesthetized with 6 mg/kg xylazine (Rompun®, Mobay Corp., Shawnee, Kans.) and 30 mg/kg ketamine (Vetacet®, Abeco Co., Inc., Fort Dodge, Iowa) before surgically exposing the neck vessels. […] The technique is briefly summarized here. A fine polyethylene catheter connected to the extracorporeal perfusion system by silicon tubings was inserted into the right common carotid artery. Immediately after the start of the perfusion, the contralateral carotid artery was ligated and both jugular veins cut to allow free drainage of the perfusate.\nAll tubing was low gas permeable silicon, and all metal was medical grade stainless steel. The temperature and perfusion pressure were continuously recorded, and the acid-base status frequently monitored. Perfusion pressure was kept slightly above the animal's blood pressure to eliminate any possible ingress from the systemic circulation.\nIsotopically labeled [^14 C]-sucrose was introduced into the perfusion circuit after the 5 minute infusion at a rate of 0.4 to 0.6 μCi/ml/min, over periods ranging from 1.5 min to 4.5 min. In all experiments, the perfusion was terminated by severing the right common carotid artery and decapitating the animal.\nThe eyes were enucleated and the lenses rapidly excised via a lateral approach 1.5 mm posteriorly to the limbus. The lenses were blotted on filter paper to remove any adhering aqueous humor and to avoid epithelial contamination by aqueous radioactivity. Corneas were dissected circumferentially about 0.5 mm anteriorly to the limbus. After removal of the anterior segment of the eye, the vitreous body was dissected from the retinal surface. Retinas were scooped from the lying epithelium. All tissues were blotted after dissection to minimize contamination by adjacent tissue layers and/or fluids. Samples of plasma, aqueous humor, lens, cornea, retina and posterior vitreous were treated with 2 ml Beckman Tissue Solubilizer (BTS)-450, and 16 ml of scintillant (Beckman Ready Organic, Fullerton, Calif.). Radioactivity was determined in a Beckman LS-7500 liquid scintillation spectrometer.\n(When data are expressed as percentages the ratios were multiplied by 100.) The following equations were used to calculate ratios:\nCaqueous or Cvitreous /Cplasma =(DPM/ml aqueous or vitreous)/(DPM/ml plasma)\nClens or Ccornea or Cretina /Cplasma =(DPM/g lens or cornea or retina)/(DPM/ml plasma)\nMultiple-time uptake series were performed, and the unidirectional transport rate constant, KIN, and initial volume of tracer distribution, VI, were calculated using the following equations where T is the perfusion time:\nKIN (plasma-aqueous or vitreous)=[Caqueous or vitreous /Cplasma ]T+VI (aqueous or vitreous/plasma)\nKIN (plasma-lens, cornea or retina)=[Clens, cornea or retina /Cplasma ]T+VI (lens cornea or retina/plasma)\nThe respective KIN and VI values were graphically estimated by linear regression analysis as a slope and ordinate intercept of the line corresponding to the best linear fit to experimental data points for the time period when there was no significant departure from linearity in studied compartments.\nResults are presented as means±SE."}, "[1]": {"test": "Effect of A-7 on physiological functions", "assay_type": "in vivo, guinea pig", "conditions": "for Blood Pressure / Body Weight / Heart Rate / Respirations/Minute: within first minute of infusion"}}, "note": "Where “and” joins values, the source holds several entries; their conditions need not be identical. Equal values may be shown once. Read-outs that look alike come from different tables or passages of the source."}
{"substance": "Arginine-Proline-Hydroxyproline-Glycine-Thienylalanine-Serine-Proline-4-Me-Tyrosine-(CH2 NH)Arginine [A-7]", "values": [{"measurement": "Uptake of [14C]-sucrose, % of plasma concentration (W/W)", "setting": "blood-ocular barrier; aqueous, 1.5 min after sucrose added", "value": "0.19 ± 0.01 % of Plasma Concentration (W/W"}, {"measurement": "Uptake of [14C]-sucrose, % of plasma concentration (W/W)", "setting": "blood-ocular barrier; aqueous, 3.0 min after sucrose added", "value": "0.41 ± 0.18 % of Plasma Concentration (W/W"}, {"measurement": "KIN, unidirectional transport rate of [14C]-sucrose", "setting": "blood-ocular barrier; aqueous", "value": "9.13 ± 3.66", "unit": "µL/min/g"}, {"measurement": "Uptake of [14C]-sucrose, % of plasma concentration (W/W)", "setting": "blood-ocular barrier; aqueous, 4.5 min after sucrose added", "value": "1.79 ± 0.68 % of Plasma Concentration (W/W"}, {"measurement": "Uptake of [14C]-sucrose, % of plasma concentration (W/W)", "setting": "blood-ocular barrier; cornea, 1.5 min after sucrose added", "value": "0.48 ± 0.19 % of Plasma Concentration (W/W"}, {"measurement": "Uptake of [14C]-sucrose, % of plasma concentration (W/W)", "setting": "blood-ocular barrier; cornea, 3.0 min after sucrose added", "value": "1.01 ± 0.23 % of Plasma Concentration (W/W"}, {"measurement": "KIN, unidirectional transport rate of [14C]-sucrose", "setting": "blood-ocular barrier; cornea", "value": "16.20 ± 3.42", "unit": "µL/min/g"}, {"measurement": "Uptake of [14C]-sucrose, % of plasma concentration (W/W)", "setting": "blood-ocular barrier; cornea, 4.5 min after sucrose added, an outlier of 0.5% not included", "value": "3.44 ± 1.40 % of Plasma Concentration (W/W"}, {"measurement": "KIN for sucrose, times higher in the presence of A-7", "setting": "blood-ocular barrier; lens", "value": 6.5, "unit": "times"}, {"measurement": "Uptake of [14C]-sucrose, % of plasma concentration (W/W)", "setting": "blood-ocular barrier; lens, 1.5 min after sucrose added", "value": "0.03 ± 0.02 % of Plasma Concentration (W/W"}, {"measurement": "Uptake of [14C]-sucrose, % of plasma concentration (W/W)", "setting": "blood-ocular barrier; lens, 3.0 min after sucrose added", "value": "0.05 ± 0.01 % of Plasma Concentration (W/W"}, {"measurement": "KIN, unidirectional transport rate of [14C]-sucrose", "setting": "blood-ocular barrier; lens", "value": "0.130 ± 0.015", "unit": "µL/min/g"}, {"measurement": "Uptake of [14C]-sucrose, % of plasma concentration (W/W)", "setting": "blood-ocular barrier; lens, 4.5 min after sucrose added", "value": "0.07 ± 0.01 % of Plasma Concentration (W/W"}, {"measurement": "KIN for sucrose, times higher in the presence of A-7", "setting": "blood-ocular barrier; retina", "value": 6.7, "unit": "times"}, {"measurement": "Uptake of [14C]-sucrose, % of plasma concentration (W/W)", "setting": "blood-ocular barrier; retina, 1.5 min after sucrose added, 5 min arterial infusion", "value": "0.95 ± 0.30 % of Plasma Concentration (W/W"}, {"measurement": "Uptake of [14C]-sucrose, % of plasma concentration (W/W)", "setting": "blood-ocular barrier; retina, 3.0 min after sucrose added, 5 min arterial infusion", "value": "1.76 ± 0.50 % of Plasma Concentration (W/W"}, {"measurement": "KIN, unidirectional transport rate of [14C]-sucrose", "setting": "blood-ocular barrier; retina", "value": "4.27 ± 0.9", "unit": "µL/min/g"}, {"measurement": "Uptake of [14C]-sucrose, % of plasma concentration (W/W)", "setting": "blood-ocular barrier; retina, 4.5 min after sucrose added, 5 min arterial infusion", "value": "2.26 ± 0.56 % of Plasma Concentration (W/W"}, {"measurement": "Uptake of [14C]-sucrose, % of plasma concentration (W/W)", "setting": "blood-ocular barrier; vitreous, 1.5 min after sucrose added", "value": "0.03 ± 0.018 % of Plasma Concentration (W/W"}, {"measurement": "Uptake of [14C]-sucrose, % of plasma concentration (W/W)", "setting": "blood-ocular barrier; vitreous, 3.0 min after sucrose added", "value": "0.05 ± 0.01 % of Plasma Concentration (W/W"}, {"measurement": "KIN, unidirectional transport rate of [14C]-sucrose", "setting": "blood-ocular barrier; vitreous", "value": "0.84 µL/min/g and 0.84 ± 0.25 µL/min/g"}, {"measurement": "Uptake of [14C]-sucrose, % of plasma concentration (W/W)", "setting": "blood-ocular barrier; vitreous, 4.5 min after sucrose added", "value": "0.18 ± 0.05 % of Plasma Concentration (W/W"}, {"measurement": "Effect on sucrose uptake by vitreous", "setting": "blood-ocular barrier; vitreous, time points earlier than 4.5 minutes of VEP", "value": "did not affect"}, {"measurement": "Changes in body weight, respiration rate, blood pressure and heart rate", "setting": "[1]; A-7 1 μg/kg", "value": "no significant changes"}, {"measurement": "Blood Pressure", "setting": "[1]; A-7 1 μg/kg body weight", "value": 75, "unit": "mm Hg"}, {"measurement": "Body Weight", "setting": "[1]; A-7 1 μg/kg body weight", "value": 283, "unit": "g"}, {"measurement": "Heart Rate", "setting": "[1]; A-7 1 μg/kg body weight", "value": 170, "unit": "Beats Per Minute"}, {"measurement": "Respirations/Minute", "setting": "[1]; A-7 1 μg/kg body weight", "value": 26}, {"measurement": "Blood Pressure", "setting": "[1]; A-7 3 μg/kg body weight", "value": 90, "unit": "mm Hg"}, {"measurement": "Body Weight", "setting": "[1]; A-7 3 μg/kg body weight", "value": 283, "unit": "g"}, {"measurement": "Heart Rate", "setting": "[1]; A-7 3 μg/kg body weight", "value": 200, "unit": "Beats Per Minute"}, {"measurement": "Respirations/Minute", "setting": "[1]; A-7 3 μg/kg body weight", "value": 44}]}
